{"source": "the METLIN SMRT retention time set (Domingo-Almenara et al. 2019)", "data": [{"assay": "gradient 5% acetonitrile 3 min, to 50% in 2 min, to 85% in 15 min, held 3 min, 100 µL/min", "conditions": "column: Zorbax Extend-C18 2.1 x 50 mm; eluents: water / acetonitrile, 0.1% formic acid", "how_it_was_run": "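Pure standards were run in mixtures of ~100 molecules by HPLC coupled to a quadrupole time-of-flight mass spectrometer. The column was a Zorbax Extend-C18 (2.1 × 50 mm, 1.8 μm) at 100 μL/min, with water and acetonitrile each containing 0.1% formic acid, in positive and negative ionization mode. Dead and dwell volumes were 40 μL and 900 μL. Retention time was taken from computationally picked adduct peaks, each manually inspected, with data collected over 3 months.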", "units": {"RP-LC retention time": "s"}, "values": [{"smiles": "COc1ccc(-c2cc3c4nnc(CCC(=O)NCc5ccccc5C(F)(F)F)n4ccn3n2)cc1", "RP-LC retention time": 822}, {"smiles": "COc1ccc(OC)c(NC(=O)Cn2c(=O)nc(N3CCC(C)CC3)c3ccccc32)c1", "RP-LC retention time": 859}, {"smiles": "Cc1cccc(C)c1-n1ccn(Cc2nc(-c3ccccn3)no2)c(=O)c1=O", "RP-LC retention time": 695}, {"smiles": "COc1ccc(C2(C(=O)N3CCCC(c4nc(C5CCOCC5)no4)C3)CC2)cc1", "note": "(configuration not stated)", "RP-LC retention time": 822}, {"smiles": "Cc1ccc(OCC(=O)N2CCN(c3nc(CN4CCOCC4)cs3)CC2)cc1", "RP-LC retention time": 640}, {"smiles": "CCN1C(=O)c2cccnc2Sc2cc(NC(=O)c3ccc(F)c(F)c3)ccc21", "RP-LC retention time": 874}, {"smiles": "COc1ccccc1N1CCN(C(=O)c2cc(C3CC3)[nH]n2)CC1", "RP-LC retention time": 699}, {"smiles": "O=C(Nc1ccccc1F)N1CCC(n2cnc3cc(Cl)ccc3c2=O)CC1", "RP-LC retention time": 811}, {"smiles": "CNC(=O)N1CCCN(S(C)(=O)=O)C(c2ccccc2)CC(=O)NCC1", "note": "(configuration not stated)", "RP-LC retention time": 616}, {"smiles": "COc1cc(NC(=O)N2CCCN(c3ccc(=O)n(-c4ccccc4)n3)CC2)cc(OC)c1OC", "RP-LC retention time": 694}, {"smiles": "CCCCn1c(=O)c2ccccc2n(Cc2nc(-c3cc(OC)c(OC)c(OC)c3)no2)c1=O", "RP-LC retention time": 1080}, {"smiles": "O=C(NC1CC1)[C@@H]1C[C@H](Oc2ccccc2)CN1C(=O)CCc1c[nH]c2ccccc12", "RP-LC retention time": 792}, {"smiles": "CC(C)n1cnnc1CC1CN(C(=O)Nc2ccccc2F)C1", "RP-LC retention time": 608}, {"smiles": "COc1ccc(C2CCCN2C(=O)Cc2cccs2)cc1", "note": "(configuration not stated)", "RP-LC retention time": 875}, {"smiles": "Cc1nnc(N2CCCC(C(=O)NCc3ccccn3)C2)c2nn(-c3ccccc3)c(C)c12", "note": "(configuration not stated)", "RP-LC retention time": 566}, {"smiles": "O=C(c1cccc(Cl)c1)N1CCN(S(=O)(=O)c2cc3c4c(c2)CCC(=O)N4CCC3)CC1", "RP-LC retention time": 843}, {"smiles": "COc1ccccc1NC(=O)c1oc2ccccc2c1NC(=O)c1c(F)cccc1Cl", "RP-LC retention time": 1180}, {"smiles": "Cc1cccc(-c2nnc(Cc3nc(-c4cccs4)no3)o2)c1", "RP-LC retention time": 979}, {"smiles": "Cc1ccc(NC(=O)C2CCCN(c3ccc4cc(S(=O)(=O)N5CCCC5)ccc4n3)C2)cc1C", "note": "(configuration not stated)", "RP-LC retention time": 870}, {"smiles": "COC(=O)CNC(=O)Nc1ccccc1-c1cc2ccccc2[nH]1", "RP-LC retention time": 810}, {"smiles": "COCCC1CCN(C(=O)CN(C)C(=O)c2ccnn2C)CC1", "RP-LC retention time": 586}, {"smiles": "CCCNC(=O)C1CCN(c2ccc(SCC(=O)Nc3cc(C)ccc3OC)nn2)CC1", "RP-LC retention time": 700}, {"smiles": "Cc1ccc(CN2C(=O)C3CCCN3C(=O)c3ccccc32)cc1", "note": "(configuration not stated)", "RP-LC retention time": 797}, {"smiles": "Cc1cc(S(=O)(=O)N2CCOC23CCN(C(=O)C2CC2)CC3)ccc1F", "RP-LC retention time": 789}, {"smiles": "CCC(C(=O)N1CCN(CC)CC1)n1c2ccccc2c2cnn(C)c(=O)c21", "note": "(configuration not stated)", "RP-LC retention time": 619}, {"smiles": "COc1ccccc1N1CCN(C(=O)Cn2cnc3onc(C)c3c2=O)CC1", "RP-LC retention time": 720}, {"smiles": "Cc1cc(CN2CCC(CNC(=O)C(=O)Nc3cccnc3)CC2)c(C)o1", "RP-LC retention time": 681}, {"smiles": "COCCNc1c(-c2cccc(F)c2)nc2sc(C(=O)NC3CCCC3)c(C)n12", "RP-LC retention time": 917}, {"smiles": "CC(C)CCNC(=O)CN1C(=O)CCn2nc(-c3cn(C)c4ccccc34)cc21", "RP-LC retention time": 807}, {"smiles": "CCC(=O)N1CCc2c(C(=O)NC(C)C)cccc21", "RP-LC retention time": 687}, {"smiles": "COc1ccccc1NC(=O)N1CCC(n2cnc3ccccc3c2=O)CC1", "RP-LC retention time": 736}, {"smiles": "CCOc1ccccc1-c1noc(Cn2cnc3c(oc4ccccc43)c2=O)n1", "RP-LC retention time": 914}, {"smiles": "Cc1ccc(C)c(N2CCN(c3ccnc(SCC(=O)Nc4ccc(Cl)cc4)n3)CC2)c1", "RP-LC retention time": 967}, {"smiles": "COc1cccc(S(=O)(=O)N2CCC3(CC2)C(OC)C(=O)N3c2cccc(F)c2)c1", "note": "(configuration not stated)", "RP-LC retention time": 1040}, {"smiles": "O=C(NC1CC1)C1(CCO)CCN(Cc2ccccc2)C1", "note": "(configuration not stated)", "RP-LC retention time": 564}, {"smiles": "Cc1noc(-c2cc(=O)n(CC(=O)Nc3cccc(C)c3C)c3ccccc23)n1", "RP-LC retention time": 890}, {"smiles": "O=C1NCCCCCCN(C(=O)Nc2ccccc2)[C@H]2CCCC[C@@H]12", "RP-LC retention time": 805}, {"smiles": "CCCS(=O)(=O)N1CCO[C@@H](COC)[C@@H]1c1ccccc1", "RP-LC retention time": 850}, {"smiles": "Cc1ccc(NC(=O)c2sc3nc[nH]c(=O)c3c2C)c(C)c1", "RP-LC retention time": 725}, {"smiles": "CC(=O)Nc1ccc(C(=O)NCc2ccc(C)o2)c(N2CCOCC2)c1", "RP-LC retention time": 684}, {"smiles": "O=C(NCCCN1CCCC1)c1ccc2c(c1)NC(=O)C1CCCCN21", "note": "(configuration not stated)", "RP-LC retention time": 588}, {"smiles": "COc1ccc(S(=O)(=O)NC2CCN(C(=O)Nc3ccc(F)c(Cl)c3)CC2)cc1", "RP-LC retention time": 900}, {"smiles": "COC(=O)c1ccc(NC(=O)N2CCCC2c2cc(C(C)C)no2)cc1", "note": "(configuration not stated)", "RP-LC retention time": 845}, {"smiles": "CN(Cc1nc2cc(C(=O)N3CCCC3)ccc2n1C)C(=O)Nc1ccc(F)cc1F", "RP-LC retention time": 607}, {"smiles": "CC(C)(C)c1ccc(C(=O)N2CCc3nc[nH]c3C2)cc1", "RP-LC retention time": 634}, {"smiles": "CCN(CC)C(=O)C1CCN(c2nc3ccc(-c4cccs4)nc3s2)CC1", "RP-LC retention time": 992}, {"smiles": "Cn1nc(C(=O)N2CCCC(C(=O)NC3CC3)C2)c2c1CCN(C(=O)COc1ccc(F)cc1)C2", "note": "(configuration not stated)", "RP-LC retention time": 674}, {"smiles": "CCCn1c(=O)sc2cc(S(=O)(=O)N3CCN(C(=O)c4ccnn4C)CC3)ccc21", "RP-LC retention time": 792}, {"smiles": "O=C(c1ccco1)N1CCN(c2ccc3cc(S(=O)(=O)N4CCCC4)ccc3n2)CC1", "RP-LC retention time": 704}, {"smiles": "O=C(Nc1nccs1)C(=O)c1c(-c2ccccc2)cc2ccccn12", "RP-LC retention time": 866}, {"smiles": "O=C(NCCOc1ccc2c(c1)OCO2)C1CCCC1", "RP-LC retention time": 741}, {"smiles": "CC(CCc1ccccc1)NC(=O)C1CCN(C(=O)C2Sc3ccccc3NC2=O)CC1", "note": "(configuration not stated)", "RP-LC retention time": 811}, {"smiles": "CCn1cnc2c1CN(S(=O)(=O)c1cccc(C#N)c1)CC2", "RP-LC retention time": 590}, {"smiles": "Cc1ncsc1C1N(C2CCN(C(=O)C3CC3)CC2)C(=O)C12CCCC2", "note": "(configuration not stated)", "RP-LC retention time": 696}, {"smiles": "Cc1ccc(NC(=O)NCC2CCOCC2)cc1Cl", "RP-LC retention time": 773}, {"smiles": "COc1cccc(CN2N=C(C(=O)N3CCCC3)S(=O)(=O)c3ccccc32)c1", "RP-LC retention time": 843}, {"smiles": "CCN(CCN(C)C)c1nc(-c2ccc(OC)cc2)nc2ccccc12", "RP-LC retention time": 562}, {"smiles": "Cc1noc(C2CC3(CCN(C(=O)C4(c5ccccc5)CC4)CC3)CN2C)n1", "note": "(configuration not stated)", "RP-LC retention time": 631}, {"smiles": "CCn1cc(Br)c(C(=O)Nc2ccc(C(C)=O)cc2)n1", "RP-LC retention time": 829}, {"smiles": "O=C(Cc1csc(NC(=O)NC2CCCCC2)n1)NCc1c(F)cccc1F", "RP-LC retention time": 737}, {"smiles": "CCOc1ccc(NC(=O)c2cc3oc(C)cc3n2Cc2ccc(C)cc2)cc1", "RP-LC retention time": 1210}, {"smiles": "CCn1ccc(C(=O)N2CCC[C@H]2c2nc(-c3ccccc3)n[nH]2)n1", "RP-LC retention time": 662}, {"smiles": "Cc1ccc(CNC(=O)c2ccc3ncnc(N4CCCC4)c3c2)cc1", "RP-LC retention time": 656}, {"smiles": "O=C(Nc1ccccc1)N1CCC2(CC1)CC(N1CCOCC1)CCO2", "note": "(configuration not stated)", "RP-LC retention time": 583}, {"smiles": "O=C(Nc1ccccc1)C1CCN(S(=O)(=O)c2cc(-c3noc(C4CC4)n3)cs2)CC1", "RP-LC retention time": 1020}, {"smiles": "COCc1noc([C@@H]2CC(F)(F)CN2C(=O)c2ocnc2C)n1", "RP-LC retention time": 679}, {"smiles": "CC(C)Cn1ccc2c(cc(C(=O)Nc3ccc(Br)cc3)n2C)c1=O", "RP-LC retention time": 979}]}]}
